8 molecules from US20120208204A1, “Compositions and Methods for Inhibiting Tumor Growth” (The Brigham and Women's Hospital, Inc., priority 2009, published 2012) can be followed below.

The target of one experiment is T1, PAK3 (Homo sapiens, UniProt O75914).
T1 construct: Recombinant human full length PAK3 enzyme was obtained (Invitrogen); purchased Invitrogen
Kind of experiment: Enzyme based PAK3 kinase assay (HTRF / TR-FRET), IC50. The experiment is classed as biochemical. To be noted: PAK3 inhibitory compounds; IC50 done in quadruplicate. As to the method:
Recombinant human full length PAK3 enzyme was obtained (Invitrogen), immediately aliquoted and kept in storage buffer as purchased at −80° C. for long term storage. The HTRF® KinEASE™ kit (CisBio) containing 5× stock solution of the enzymatic buffer and 1× detection buffer, STK substrate 2-biotin (S2), a phosphospecific monoclonal Europium-labeled Cryptate antibody, which recognizes a phospholylation epitope of the biotinylated peptide, as donor fluorophore and Stretptavadin-linked XL665 (SA-XL665) representing the acceptor fluorophor were used for TR-FRET assays. The compound library consisted of approximately 125,000 small molecules, including compounds approved by the Food and Drug Administration (FDA), a purified natural products library and commercially available compounds from various vendors. All small molecules generally adhere to Lipinski's rules and have been optimized for maximization of molecular diversity.
An enzyme based kinase assay was carried out using full length recombinant PAK3 kinase. A model biotinylated peptide RRRSLLE (SEQ ID NO:5) was used as the substrate. Detection was done by Homogeneous Time Resolve Fluorescence (HTRF) with an antibody that recognizes the phosphorylation site on the peptide.
TR-FRET assays were carried out as follows. A CRS CataLyst Express robotic arm and a Cybi-well 384 channel simultaneous pipettor were used to carry out the High-Throughput Screen. Kinase reactions were performed in 50 mM HEPES, pH 7.0, 0.02% NaN3, 2 mM MgCl2, 0.01% BSA, 0.1 mM Orthonanadate, 1 mM DTT, 0.001% Tween-20, 0.001% Brij-35 using ProxiPlate-384 Plus white assay plates. […] The kinase reaction was initiated by addition of […] per reaction (25 μM ATP final, at the Km). The reaction was incubated for 30 minutes at room temperature. Reaction was terminated by addition of 10 μl of a premixed solution of EDTA, Europium cryptate-labeled antibody and fluorophore-conjugated streptavadin. After overnight incubation at room temperature, TR-FRET measurements were performed using a PHERAstar HTS microplate reader, and were expressed as ratios of acceptor fluorescence at 665 nm over donor fluorescence at 620 nm.
(§1) Data were analyzed using GraphPad Prism Version 5 (GraphPad Software Inc., La Jolla, Calif., USA). Each compound plate included one column of negative controls, were no enzyme was added, and another column for positive controls when no inhibitor compound was added; these were used to calculate Z′ factors and signal to noise ratios throughout the screen. […] IC50 determinations were done in quadruplicate for each compound using different adding sequences for compound and enzyme-substrate-mix. EC50 determinations were done in triplicate for each compound using different time points. For calculation of IC50 and EC50 concentrations, respectively, mean inhibition dose response curves were fitted to the sigmoidal response equation: Y=Bottom+(Top−Bottom)/(1+10̂((X−LogIC50))) were X is log(compound concentration) and Y is % inhibition, and Bottom and Top are the lower and upper plateau. Km concentrations were determined by non-linear regression curve fitting, using the equation: Y=Vmax*X/(Km+X), where X is the substrate concentration.

Another experiment concerns HeLa cells. The experiment can be described thus: Cell-based assay in HeLa cells (AlamarBlue cell viability), EC50. Further details: species or system human. As to the method:
HeLa cells (ATCC) were maintained in Dulbecco's modified Eagle medium (DMEM) supplemented with 10% fetal bovine serum and 1% Penicillin/Streptomycin. Approximately 200 to 500 cells per well were seeded in a 96 well tissue culture plates. Following 24 h growth in normal DMEM, the individual compounds were warmed up to room temperature and diluted in DMEM to their according concentration and then immediately added to the wells. One column on each assay plate contained DMEM only (“neg. control”) and one column contained untreated HeLa cells as “pos. control”. Cells were treated with the compounds at various cell densities and for treatment periods ranging between 75 hrs and approx. 200 hrs. To control for cell viability, we assayed plates using AlamarBlue° (Invitrogen), which uses a redox reaction to measure metabolically active viable cells. At each time point the culture media was removed and a solution of 10% AlamarBlue reagent and DMEM was added to each well to measure cell viability. Fluorescence was measured after 1-2 hrs incubation at 37 C on a Victor^2 Plate Reader (PerkinElmer).
as §1
Compounds were tested in a cell-based assay (HeLa cells). IC50 and EC50 are expressed in micromolar units.
A general note: Resazurin is reduced to fluorescent resorufin, in cell work by metabolically active cells.

For a further experiment, the system named is SGK2. The experiment can be described thus: Inhibition of kinase activity by SGK2 inhibitory compounds, single concentration. The experiment is classed as biochemical. The settings on record: 10 μM compound. The text has this:
A library of compounds was screened for inhibitors of SGK2 and PAK3 activity by assaying phosphorylation of a generic peptide substrate either directly; or indirectly by inhibiting upstream kinase PDK1 from activating the enzyme in vitro. In both cases, the phosphorylated substrate was detected using a specific anti-phospho peptide antibody that is coupled with Eu^3+ Cryptate and XL665 conjugated with streptavidin. […] All initial hits were re-assayed as a dose response series with eight 3-fold dilutions and resulting final concentrations ranged from 0.9 nM to 20 μM.

Where [1] appears, read: 75 h treatment, read-out: EC50 75 h.
The mark [2] stands for this setting: 150 h treatment, read-out: EC50 150 h.
[3] abbreviates: read-out: EC50 100 h, 100 h treatment.

pEC50, pIC50: −log10 of the molar value. Like-named read-outs stand apart in the source and are kept apart here.

T1 sequence (O75914 1-544 isoform O75914-2): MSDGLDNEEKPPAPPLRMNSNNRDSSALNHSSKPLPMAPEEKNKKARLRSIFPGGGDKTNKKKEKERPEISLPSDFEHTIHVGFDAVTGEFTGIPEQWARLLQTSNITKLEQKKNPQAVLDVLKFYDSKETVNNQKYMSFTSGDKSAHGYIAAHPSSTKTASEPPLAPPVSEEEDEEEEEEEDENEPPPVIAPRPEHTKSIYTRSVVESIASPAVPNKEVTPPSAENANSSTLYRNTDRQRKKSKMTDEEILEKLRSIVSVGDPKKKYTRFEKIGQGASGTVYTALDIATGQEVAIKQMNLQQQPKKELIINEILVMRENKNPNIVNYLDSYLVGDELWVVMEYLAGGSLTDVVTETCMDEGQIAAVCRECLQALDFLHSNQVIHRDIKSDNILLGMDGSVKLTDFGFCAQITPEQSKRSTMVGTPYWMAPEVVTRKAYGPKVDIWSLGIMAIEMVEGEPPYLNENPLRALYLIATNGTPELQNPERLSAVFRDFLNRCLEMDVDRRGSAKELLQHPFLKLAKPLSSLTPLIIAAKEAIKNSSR

A word on the pIC50: it is the negative decadic logarithm of the IC50, by convention in mol/L. A low value points to a large IC50. The pEC50 is the EC50 on a negative log10 scale, so that one unit is a factor of ten. Molecule `Cc1ccc(-c2c(C#N)c(SCC(=O)c3ccc(O)c(O)c3)nc3c2CCCC3)o1` [LDN-0026056] gave a negative logarithm of the IC50 (pIC50) against PAK3 of 6.16. In addition, the pEC50 was 4.86 in the experiment on HeLa cells (setting [1]), 4.74 in the experiment with HeLa cells (setting [2]) and 4.77 in the experiment on HeLa cells (setting [3]).

In turn, `N#Cc1c(N)nc(SCc2ccccc2)c(C#N)c1-c1ccccc1Cl` [LDN-0211958] gave a pIC50 at PAK3 of 6.48. Also, the pEC50 with HeLa cells (setting [1]) was 4.95; in the experiment on HeLa cells (setting [2]) it was 4.97; in the experiment on HeLa cells (setting [3]), 4.94.

`Cc1ccccc1-c1c(C#N)c(N)nc(SCc2ccccc2)c1C#N` [LDN-0211959]: at PAK3, the negative logarithm of the IC50 (pIC50) was 6.55. Further, the values for the pEC50 with HeLa cells (setting [1]), in the experiment on HeLa cells (setting [2]) and with HeLa cells (setting [3]) were 4.95, 4.98 and 4.90, respectively.

On PAK3, `Cc1cc(C)c(C#N)c(SCC(=O)c2ccc(O)c(O)c2)n1` [LDN-0211955] showed a pIC50 of 5.45. Further, the negative logarithm of the EC50 (pEC50) in the experiment with HeLa cells (setting [1]) is 4.75; with HeLa cells (setting [2]), 4.63; in the experiment with HeLa cells (setting [3]), 4.47.

Usually % Inhibition stands for the percentage by which the read-out fell short of the control. Molecule `Cc1cc(-c2ccco2)c(C#N)c(SCC(=O)c2ccc(O)c(O)c2)n1` [LDN-0041012] had a pIC50 on PAK3 of 6.21. Moreover, the pEC50 was 5.34 in the experiment with HeLa cells (setting [1]), 5.47 in the experiment on HeLa cells (setting [2]) and 5.34 with HeLa cells (setting [3]). Further, in the experiment on SGK2, the “% Inhibition at 10 μM” value amounted to 95%.

On PAK3, `N#Cc1c(N)nc(SCc2ccccc2)c(C#N)c1-c1ccc(O)cc1` [LDN-0028618] gave a pIC50 of 6.52. Moreover, the negative-log EC50 (pEC50) in the experiment with HeLa cells (setting [1]) is 4.88; in the experiment on HeLa cells (setting [2]), 4.74; with HeLa cells (setting [3]) it was 4.78. Besides, in the experiment with SGK2, the “% Inhibition at 10 μM” value came out at 87%.

For the molecule `COc1ccc(-c2nc(-c3ccc(Sc4ccccc4)cc3)c(-c3ccccc3)[nH]2)cc1` [LDN-0044878], the pIC50 at PAK3 was 7.52. Moreover, the negative-log EC50 (pEC50) was 4.97 in the experiment on HeLa cells (setting [1]), 4.95 in the experiment on HeLa cells (setting [2]) and 4.81 with HeLa cells (setting [3]). Further, in the experiment with SGK2, the “% Inhibition at 10 μM” value stood at 79%.

On PAK3, `Cc1nc(-c2ccccc2)c(-c2ccccc2)[nH]1` [LDN-0091420] gave a pIC50 of 4.99. The values for the negative-log EC50 (pEC50) with HeLa cells (setting [1]), in the experiment on HeLa cells (setting [2]) and in the experiment with HeLa cells (setting [3]) were 4.42, 4.37 and 4.39, respectively.
